O=C(O)c1ccccc1C(=O)O
Conditions | solubility (mole fraction)
in DMAc, 295.05 K | 0.163
in DMAc, 296.15 K | 0.168
in DMAc, 298.35 K | 0.18
in DMAc, 301.15 K | 0.193
in DMAc, 302.95 K | 0.201
in DMAc, 305.05 K | 0.211
in DMAc, 306.35 K | 0.22
in DMAc, 308.15 K | 0.229
in DMAc, 309.25 K | 0.238
in DMAc, 310.65 K | 0.249
in DMAc, 312.15 K | 0.258
in DMAc, 313.15 K | 0.268
in DMAc, 314.35 K | 0.276
in DMAc, 316.05 K | 0.286
in DMAc, 316.65 K | 0.295
in DMAc, 318.15 K | 0.305
in DMAc, 319.15 K | 0.314
in DMAc, 321.15 K | 0.323
in DMAc, 323.15 K | 0.334
in DMAc, 325.05 K | 0.343
in DMAc, 326.85 K | 0.353
in DMAc, 328.15 K | 0.362
in DMAc, 329.35 K | 0.373
in DMAc, 330.35 K | 0.381
in DMAc, 331.25 K | 0.389
in DMAc, 331.95 K | 0.396
in DMAc, 333.15 K | 0.405
in DMAc, 333.95 K | 0.415
in DMAc, 334.95 K | 0.427
in DMF, 304.15 K | 0.399
in DMF, 309.15 K | 0.42
in DMF, 311.05 K | 0.426
in DMF, 314.65 K | 0.435
in DMF, 316.75 K | 0.441
in DMF, 319.15 K | 0.446
in DMF, 323.35 K | 0.464
in DMF, 326.15 K | 0.476
in DMF, 328.65 K | 0.481
in DMF, 330.75 K | 0.491
in DMF, 332.45 K | 0.499
in DMF, 335.35 K | 0.509
in DMF, 338.25 K | 0.516
in DMF, 342.15 K | 0.528
in DMSO, 291.55 K | 0.333
in DMSO, 304.25 K | 0.344
in DMSO, 306.25 K | 0.348
in DMSO, 309.65 K | 0.352
in DMSO, 313.65 K | 0.354
in DMSO, 317.25 K | 0.357
in DMSO, 321.65 K | 0.362
in DMSO, 324.15 K | 0.364
in DMSO, 328.15 K | 0.368
in DMSO, 331.35 K | 0.37
in DMSO, 335.15 K | 0.373
in DMSO, 339.65 K | 0.378
in DMSO, 342.15 K | 0.38
in NMP, 293.55 K | 0.0649
in NMP, 298.35 K | 0.0801
in NMP, 303.25 K | 0.0925
in NMP, 305.15 K | 0.0988
in NMP, 307.95 K | 0.105
in NMP, 310.15 K | 0.116
in NMP, 314.05 K | 0.128
in NMP, 319.25 K | 0.147
in NMP, 321.65 K | 0.158
in NMP, 325.15 K | 0.173
in NMP, 327.25 K | 0.184
in NMP, 330.15 K | 0.202
in NMP, 333.25 K | 0.219
in acetonitrile, 296.95 K | 0.0247
in acetonitrile, 302.05 K | 0.0282
in acetonitrile, 308.25 K | 0.0323
in acetonitrile, 314.65 K | 0.0367
in acetonitrile, 318.35 K | 0.039
in acetonitrile, 321.15 K | 0.0402
in acetonitrile, 323.35 K | 0.0417
in acetonitrile, 325.15 K | 0.0429
in acetonitrile, 327.15 K | 0.0443
in acetonitrile, 329.15 K | 0.0457
in acetonitrile, 330.95 K | 0.048
in acetonitrile, 332.75 K | 0.0491
in acetonitrile, 334.35 K | 0.0504
in n-methylformamide, 294.35 K | 0.184
in n-methylformamide, 298.95 K | 0.19
in n-methylformamide, 303.35 K | 0.196
in n-methylformamide, 307.35 K | 0.201
in n-methylformamide, 311.15 K | 0.203
in n-methylformamide, 315.35 K | 0.207
in n-methylformamide, 318.95 K | 0.211
in n-methylformamide, 323.15 K | 0.216
in n-methylformamide, 327.95 K | 0.221
in n-methylformamide, 334.35 K | 0.229
in propionic acid, 298.75 K | 0.00308
in propionic acid, 306.65 K | 0.00404
in propionic acid, 312.15 K | 0.00478
in propionic acid, 316.15 K | 0.00524
in propionic acid, 320.65 K | 0.00579
in propionic acid, 323.65 K | 0.00642
in propionic acid, 327.75 K | 0.00704
in propionic acid, 331.35 K | 0.0079
in propionic acid, 335.15 K | 0.00876
in propionic acid, 338.75 K | 0.00983

Cc1ccccc1C(=O)O
Conditions | solubility (mole fraction)
in DMAc, 307.65 K | 0.0781
in DMAc, 309.65 K | 0.0831
in DMAc, 311.25 K | 0.0866
in DMAc, 313.15 K | 0.0964
in DMAc, 314.35 K | 0.106
in DMAc, 317.65 K | 0.121
in DMAc, 320.25 K | 0.133
in DMAc, 321.85 K | 0.143
in DMAc, 325.25 K | 0.168
in DMAc, 327.55 K | 0.187
in DMAc, 330.25 K | 0.21
in DMAc, 332.65 K | 0.231
in DMAc, 334.35 K | 0.248
in DMAc, 336.15 K | 0.264
in DMAc, 337.35 K | 0.28
in DMAc, 338.95 K | 0.291
in DMAc, 340.35 K | 0.309
in DMAc, 341.15 K | 0.327
in DMAc, 342.05 K | 0.344
in DMAc, 343.15 K | 0.362
in DMAc, 344.35 K | 0.384
in DMF, 291.15 K | 0.329
in DMF, 295.85 K | 0.342
in DMF, 299.95 K | 0.357
in DMF, 303.75 K | 0.371
in DMF, 307.65 K | 0.39
in DMF, 311.55 K | 0.407
in DMF, 315.55 K | 0.423
in DMF, 319.45 K | 0.445
in DMF, 323.15 K | 0.461
in DMF, 327.25 K | 0.481
in DMF, 331.35 K | 0.498
in DMSO, 294.05 K | 0.497
in DMSO, 299.65 K | 0.514
in DMSO, 302.95 K | 0.523
in DMSO, 306.35 K | 0.534
in DMSO, 308.35 K | 0.537
in DMSO, 310.85 K | 0.542
in DMSO, 313.15 K | 0.548
in DMSO, 315.15 K | 0.557
in DMSO, 319.65 K | 0.57
in DMSO, 323.65 K | 0.581
in DMSO, 327.65 K | 0.591
in DMSO, 330.05 K | 0.6
in DMSO, 332.15 K | 0.608
in DMSO, 334.55 K | 0.617
in NMP, 288.95 K | 0.449
in NMP, 292.95 K | 0.455
in NMP, 296.95 K | 0.471
in NMP, 300.65 K | 0.49
in NMP, 304.65 K | 0.499
in NMP, 308.65 K | 0.51
in NMP, 312.65 K | 0.518
in NMP, 316.65 K | 0.531
in NMP, 321.35 K | 0.542
in NMP, 326.35 K | 0.559
in acetonitrile, 299.15 K | 0.314
in acetonitrile, 300.25 K | 0.316
in acetonitrile, 302.95 K | 0.323
in acetonitrile, 305.55 K | 0.329
in acetonitrile, 310.65 K | 0.34
in acetonitrile, 314.35 K | 0.346
in acetonitrile, 315.45 K | 0.35
in acetonitrile, 319.25 K | 0.36
in acetonitrile, 322.65 K | 0.369
in acetonitrile, 325.55 K | 0.378
in acetonitrile, 329.15 K | 0.386
in acetonitrile, 331.75 K | 0.393
in acetonitrile, 335.15 K | 0.401
in acetonitrile, 338.15 K | 0.409
in n-methylformamide, 294.95 K | 0.276
in n-methylformamide, 298.15 K | 0.286
in n-methylformamide, 303.65 K | 0.303
in n-methylformamide, 307.95 K | 0.32
in n-methylformamide, 312.95 K | 0.343
in n-methylformamide, 318.05 K | 0.365
in n-methylformamide, 322.35 K | 0.379
in n-methylformamide, 326.15 K | 0.392
in n-methylformamide, 330.15 K | 0.407
in n-methylformamide, 334.35 K | 0.434
in propionic acid, 296.35 K | 0.155
in propionic acid, 300.35 K | 0.179
in propionic acid, 303.65 K | 0.198
in propionic acid, 307.65 K | 0.212
in propionic acid, 311.25 K | 0.232
in propionic acid, 314.85 K | 0.253
in propionic acid, 318.35 K | 0.273
in propionic acid, 322.45 K | 0.301
in propionic acid, 326.05 K | 0.334
in propionic acid, 330.25 K | 0.363
in propionic acid, 334.15 K | 0.397

Source: BigSolDB 2.1
